In patent US12077503B2, “Substituted cyclic amides and their use as herbicides” (FMC CORPORATION, priority 2015, dated 2024):

Tests used:
Format in all cases: in vivo
Kochia (Kochia scoparia) [1] = assay: Test A preemergence; settings: Bassia scoparia, pre-emergence, 240 h
Outline: (§1)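 Each rating is a visual injury score from 0 to 100 given about 10 d after treatment, judged against untreated controls kept alongside in the greenhouse. In loam soil–sand blend, seeds got a preemergence directed soil spray, while postemergence plants were 2 to 10 cm tall at spraying.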

[2] = system: barnyardgrass (Echinochloa crus-galli); assay: Test A preemergence; settings: Echinochloa crus-galli, pre-emergence, 240 h
Outline: as §1

[3] = system: giant foxtail (Setaria faberii); assay: Test A preemergence; settings: Setaria faberi, pre-emergence, 240 h
Outline: as §1

[4] = system: pigweed (Amaranthus retroflexus); assay: Test A preemergence; settings: Amaranthus retroflexus, pre-emergence, 240 h
[5] = system: ragweed (common ragweed, Ambrosia elatior); assay: Test A preemergence; settings: Ambrosia artemisiifolia, pre-emergence, 240 h
Outline: as §1

[6] = system: ryegrass, Italian (Italian ryegrass, Lolium multiflorum); assay: Test A preemergence; settings: Lolium multiflorum, pre-emergence, 240 h
Outline: as §1

[7] = system: Galium (catchweed bedstraw, Galium aparine); assay: Test A postemergence; settings: Galium, post-emergence, 240 h, 125 g ai/ha, Postemergence; visual injury after approximately 10 d; 0 to 100 scale where 0 is no effect and 100 is complete control; read-out: Plant response rating, Galium
Outline: as §1

Kochia (Kochia scoparia) [8] = assay: Test A postemergence; settings: Bassia scoparia, post-emergence, 240 h, 125 g ai/ha, Postemergence; visual injury after approximately 10 d; 0 to 100 scale where 0 is no effect and 100 is complete control; read-out: Plant response rating, Kochia
Outline: as §1

[9] = system: barnyardgrass (Echinochloa crus-galli); assay: Test A postemergence; settings: Echinochloa crus-galli, post-emergence, 240 h, 125 g ai/ha, Postemergence; visual injury after approximately 10 d; 0 to 100 scale where 0 is no effect and 100 is complete control; read-out: Plant response rating, Barnyardgrass
Outline: as §1

[10] = system: blackgrass (Alopecurus myosuroides); assay: Test A postemergence; settings: Alopecurus myosuroides, post-emergence, 240 h, 125 g ai/ha, Postemergence; visual injury after approximately 10 d; 0 to 100 scale where 0 is no effect and 100 is complete control; read-out: Plant response rating, Blackgrass
Outline: as §1

corn (Zea mays) = assay: Test A postemergence; settings: Zea mays, post-emergence, 240 h, 125 g ai/ha, Postemergence; visual injury after approximately 10 d; 0 to 100 scale where 0 is no effect and 100 is complete control
Outline: as §1

[11] = system: giant foxtail (Setaria faberii); assay: Test A postemergence; settings: Setaria faberi, post-emergence, 240 h, 125 g ai/ha, Postemergence; visual injury after approximately 10 d; 0 to 100 scale where 0 is no effect and 100 is complete control; read-out: Plant response rating, Foxtail, Giant
Outline: as §1

[12] = system: pigweed (Amaranthus retroflexus); assay: Test A postemergence; settings: Amaranthus retroflexus, post-emergence, 240 h, 125 g ai/ha, Postemergence; visual injury after approximately 10 d; 0 to 100 scale where 0 is no effect and 100 is complete control; read-out: Plant response rating, Pigweed
Outline: as §1

[13] = system: ragweed (common ragweed, Ambrosia elatior); assay: Test A postemergence; settings: Ambrosia artemisiifolia, post-emergence, 240 h, 125 g ai/ha, Postemergence; visual injury after approximately 10 d; 0 to 100 scale where 0 is no effect and 100 is complete control; read-out: Plant response rating, Ragweed
Outline: as §1

[14] = system: ryegrass, Italian (Italian ryegrass, Lolium multiflorum); assay: Test A postemergence; settings: Lolium multiflorum, post-emergence, 240 h, 125 g ai/ha, Postemergence; visual injury after approximately 10 d; 0 to 100 scale where 0 is no effect and 100 is complete control; read-out: Plant response rating, Ryegrass, Italian
Outline: as §1

[15] = system: wheat (Triticum aestivum); assay: Test A postemergence; settings: Triticum aestivum, post-emergence, 240 h, 125 g ai/ha, Postemergence; visual injury after approximately 10 d; 0 to 100 scale where 0 is no effect and 100 is complete control; read-out: Plant response rating, Wheat
Outline: as §1

[16] = system: barnyardgrass (Echinochloa crus-galli); assay: Test B flooded paddy test; settings: Echinochloa crus-galli, Flood, 250 g ai/ha; scale of 0 to 100 where 0 is no effect and 100 is complete control; read-out: Barnyardgrass plant response rating
Outline: (§2)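 Response scored visually against untreated controls, 0 = no effect and 100 = complete control, 13–15 d after treatment in the greenhouse. Compounds added to paddy water held 3 cm above soil surface. Treatment given at 2-leaf stage.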

[17] = system: ducksalad (Heteranthera limosa); assay: Test B flooded paddy test; settings: Heteranthera limosa, Flood, 250 g ai/ha; scale of 0 to 100 where 0 is no effect and 100 is complete control; read-out: Ducksalad plant response rating
Outline: as §2

rice (Oryra sativa) = assay: Test B flooded paddy test; settings: Oryza sativa, Flood, 250 g ai/ha; scale of 0 to 100 where 0 is no effect and 100 is complete control; read-out: Rice plant response rating
Outline: as §2

[18] = system: sedge, umbrella (small-flower umbrella sedge, Cyperus difformis); assay: Test B flooded paddy test; settings: Cyperus difformis, 250 g ai/ha, Flood; 0 to 100 scale where 0 is no effect and 100 is complete control; read-out: Sedge, Umbrella plant response rating
Outline: as §2

Structure (SMILES): COc1ccc([C@H]2CN(C)C(=O)[C@@H]2C(=O)Nc2cccc(F)c2F)cc1C(F)(F)F [Compound 986]
- pest or weed control at 125 g/ha (Kochia (Kochia scoparia) [1]; 125 g ai/ha, Preemergence, visual injury rating after approximately 10 d, read-out: Kochia plant response rating (0 to 100 scale, 0 is no effect, 100 is complete control)): 30%
- pest or weed control at 500 g/ha (Kochia (Kochia scoparia) [1]; 500 g ai/ha, preemergence, visual injury rating about 10 d after treatment, 0 to 100 scale (0 no effect, 100 complete control), read-out: Kochia plant response rating): 70%
- pest or weed control at 125 g/ha ([2]; 125 g ai/ha, Preemergence, visual injury rating after approximately 10 d, read-out: Barnyardgrass plant response rating (0 to 100 scale, 0 is no effect, 100 is complete control)): 90%
- pest or weed control at 500 g/ha ([2]; 500 g ai/ha, preemergence, visual injury rating about 10 d after treatment, 0 to 100 scale (0 no effect, 100 complete control), read-out: Barnyardgrass plant response rating): 90%
- pest or weed control at 125 g/ha ([3]; 125 g ai/ha, Preemergence, visual injury rating after approximately 10 d, read-out: Foxtail, Giant plant response rating (0 to 100 scale, 0 is no effect, 100 is complete control)): 100%
- pest or weed control at 500 g/ha ([3]; 500 g ai/ha, preemergence, visual injury rating about 10 d after treatment, 0 to 100 scale (0 no effect, 100 complete control), read-out: Foxtail, Giant plant response rating): 100%
- pest or weed control at 125 g/ha ([4]; 125 g ai/ha, Preemergence, visual injury rating after approximately 10 d, read-out: Pigweed plant response rating (0 to 100 scale, 0 is no effect, 100 is complete control)): 60%
- pest or weed control at 500 g/ha ([4]; 500 g ai/ha, preemergence, visual injury rating about 10 d after treatment, 0 to 100 scale (0 no effect, 100 complete control), read-out: Pigweed plant response rating): 70%
- pest or weed control at 125 g/ha ([5]; 125 g ai/ha, Preemergence, visual injury rating after approximately 10 d, read-out: Ragweed plant response rating (0 to 100 scale, 0 is no effect, 100 is complete control)): 50%
- pest or weed control at 500 g/ha ([5]; 500 g ai/ha, preemergence, visual injury rating about 10 d after treatment, 0 to 100 scale (0 no effect, 100 complete control), read-out: Ragweed plant response rating): 70%
- pest or weed control at 125 g/ha ([6]; 125 g ai/ha, Preemergence, visual injury rating after approximately 10 d, read-out: Ryegrass, Italian plant response rating (0 to 100 scale, 0 is no effect, 100 is complete control)): 60%
- pest or weed control at 500 g/ha ([6]; 500 g ai/ha, preemergence, visual injury rating about 10 d after treatment, 0 to 100 scale (0 no effect, 100 complete control), read-out: Ryegrass, Italian plant response rating): 80%
- pest or weed control at 125 g/ha [7]: 30%
- pest or weed control at 125 g/ha (Kochia (Kochia scoparia) [8]): 30%
- pest or weed control at 125 g/ha [9]: 80%
- pest or weed control at 125 g/ha [10]: 40%
- Corn plant response rating (crop injury, 0 = no effect, 100 = complete kill) at 125 g/ha (corn (Zea mays)): 80%
- pest or weed control at 125 g/ha [11]: 90%
- pest or weed control at 125 g/ha [12]: 0%
- pest or weed control at 125 g/ha [13]: 0%
- pest or weed control at 125 g/ha [14]: 30%
- plant injury at 125 g/ha [15]: 20%
- pest or weed control at 250 g/ha [16]: 55%
- pest or weed control at 250 g/ha [17]: 75%
- pest or weed control at 250 g/ha (rice (Oryra sativa)): 20%
- pest or weed control at 250 g/ha [18]: 0%
